In US20240374879A1, “METHODS AND COMPOSITIONS TO REDUCE CELLULAR DEPOSITION, AND HYDROCEPHALUS SHUNT FAILURE” (Wayne State University, priority 2021, published 2024):

Assays:
[1] = test system: Human astrocyte cells; experiment: Cell counts of human astrocytes cultured on PDMS discs, GIT 27 as pre-, simultaneous or post-treatment; type: cell-based; conditions: for number of cells compared to associated control: vs control; for % Change of average Cell Counts, GIT 27 vs DMSO treated vehicle: GIT 27 1000 μg/mL
Method: PDMS Catheter Creation: Catheter samples were made by creating a polydimethylsiloxane (PDMS, silicone) solution, Sylgard 184 (Dow Corning), at a ratio of 10:1 elastomer to curing agent. This solution was then homogenized and placed into a degasser to remove bubbles. Once all the air bubbles were removed, 200 μL of the PDMS solution was pipetted into a 24 well plate to create flat disk samples for cell culturing. These samples were then degassed again to ensure were no bubbles in the disks and left for 48 hours to cure on a flat substrate.
Media Creation: A media stock solution was created by combining astrocyte media (ScienCell), supplement kit, 10 mL fetal bovine serum (FBS), 5 mL penicillin/streptomycin, and 5 mL astrocyte growth serum (ScienCell), and an additional 10 mL FBS (ScienCell). IL-1β and IL-10 were diluted to a concentration of 50,000 ng/mL and 100,000 ng/mL, respectively, in phosphate buffer solution (PBS, w/v). GIT 27 was dissolved in a dimethyl sulfoxide (DMSO) vehicle (Sigma-Aldrich) to a concentration of 20 mg/mL (w/v).
Media solutions for the different groups were made directly before each media change. Cytokines IL-1β or IL-10 were added to the media stock solution for a final concentration of 14.67 ng/mL. GIT 27 was added for a concentration of 1000 μg/mL in the media stock solution for our experimental group. […] Our vehicle group contained 50 μL/mL DMSO alone, which is proportional to the amount in the GIT 27 treated group. Concentrations were then made for evaluation of dose and time dependency (FIGS. 6A-6F).
Cell Culture: Human astrocyte cells were initially grown in T75 flasks with media changes every three days using basic astrocyte media and washed with Hanks Balanced Salt Solution without Calcium and Magnesium (Gibco). Once the flasks came to confluency, the cells were trypsinized using Trypsin-EDTA at 0.25% (Gibco) and seeded at a seeding density of 250,000 cells per well. These samples were broken up into three treatment groups: control, DMSO, and GIT 27 tested as a pre-treatment, simultaneous treatment, and post-treatment (FIGS. 6A-6F). Each group and treatment time were then either exposed to IL-1β or IL-10 separately at concentrations described for media creation.
Cell Count Collection: Images were taking using a microscope (Fisher Scientific) and microscope attachable digital camera following each media change on days 1, 5, 7, 9, 12, and 14. These images were taken at approximately the center of each 24 well plate well with an area of 5.9788 mm^2. Counts were obtained using the FIJI software by converting the images to 32-bit. Contrast was enhanced to the value of 0.5 and background was subtracted to a value of 10. Finally, the threshold was set to 23-70 to obtain the cell count of each image.
Statistical Analysis: Three conditions were tested in this experiment, treatment group, treatment time, and IL B or IL10 exposure, with a total of 16 different samples tested with an n=five of replicates. The three treatment groups tested were a control, vehicle control (DMSO), and GIT 27 (G27). Each treatment group was tested as a pre-treatment (denoted Pre-), dose simultaneous to treatment (denoted Sim-), and post-treatment (denoted Post-) as time points with respect to shunt insertion represented by exposure to either IL-1β (IL1B) or IL-10 (IL10). Utilizing the abbreviations described here we combined these to allow for an easier understand of the results presented. An example of this can be control Pre-IL1B, DMSO Pre-IL1B, and G27 Pre-IL1B which represents the three treatment groups when used as a pre-treatment to IL-1β exposure.

[2] = molecular target: T1, TLR-4 (Mus musculus, UniProt Q9QUK6); conditions: 50 mg/kg; four hours post-treatment; cited from earlier work
T1 sequence (Q9QUK6 26-835): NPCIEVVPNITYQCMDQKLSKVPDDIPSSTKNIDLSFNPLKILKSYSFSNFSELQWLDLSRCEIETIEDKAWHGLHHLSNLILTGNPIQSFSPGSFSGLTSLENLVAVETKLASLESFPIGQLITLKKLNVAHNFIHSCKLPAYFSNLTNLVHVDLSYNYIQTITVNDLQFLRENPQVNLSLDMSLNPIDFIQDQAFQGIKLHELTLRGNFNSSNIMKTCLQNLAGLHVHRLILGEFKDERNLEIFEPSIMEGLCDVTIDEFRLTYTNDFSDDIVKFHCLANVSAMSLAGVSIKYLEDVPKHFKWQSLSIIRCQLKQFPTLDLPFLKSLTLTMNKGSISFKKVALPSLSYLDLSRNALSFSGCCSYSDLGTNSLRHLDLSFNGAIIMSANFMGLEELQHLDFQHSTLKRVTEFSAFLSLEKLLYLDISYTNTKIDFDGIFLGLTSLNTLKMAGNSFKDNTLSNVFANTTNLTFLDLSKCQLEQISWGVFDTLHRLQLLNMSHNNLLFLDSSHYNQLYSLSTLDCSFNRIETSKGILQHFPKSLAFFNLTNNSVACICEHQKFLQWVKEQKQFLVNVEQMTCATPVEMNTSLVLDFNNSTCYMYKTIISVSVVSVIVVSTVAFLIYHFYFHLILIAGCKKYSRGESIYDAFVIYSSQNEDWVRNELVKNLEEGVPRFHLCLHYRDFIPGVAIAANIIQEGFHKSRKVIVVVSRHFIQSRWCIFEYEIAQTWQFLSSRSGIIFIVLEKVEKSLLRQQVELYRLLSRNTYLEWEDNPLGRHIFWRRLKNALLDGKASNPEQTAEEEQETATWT

O=C(O)CC1CC(c2ccccc2)=NO1 (centres unmarked) [GIT 27, 4,5-Dihydro-3-phenyl-5-isoxazoleacetic acid]
cell count by treatment time ([1]; G27 Pre-IL1B compared to G27 Post-IL1B): significantly fewer | cell count by treatment time ([1]; G27 Pre-IL1B compared to Sim-IL1B): insignificantly less | cell count by treatment time ([1]; G27 Pre-IL10 compared to G27 Post-IL10): significantly fewer | cell count by treatment time ([1]; G27 Sim-IL10 compared to G27 Post-IL10): significantly lower | number of cells compared to associated control ([1]; Post-IL1B): not significantly different | cell count, difference between the three treatment groups ([1]; Post-IL10): no effect | % Change of average Cell Counts, GIT 27 vs DMSO treated vehicle ([1]; Post-Treatment (C), exposed to IL-1β): 94.25% | % Change of average Cell Counts, GIT 27 vs DMSO treated vehicle ([1]; Post-Treatment (C), exposed to IL-10): −9.74% | cell count compared to DMSO ([1]; Pre-IL1B, vs DMSO Pre-IL1B): insignificantly lower | cell count compared to control ([1]; Pre-IL1B, vs control Pre-IL1B): significantly lower | % Change of average Cell Counts, GIT 27 vs DMSO treated vehicle ([1]; Pre-Treatment (A), exposed to IL-1β): −15.09% | % Change of average Cell Counts, GIT 27 vs DMSO treated vehicle ([1]; Pre-Treatment (A), exposed to IL-10): 22.97% | number of cells compared to associated control ([1]; Sim-IL1B): not significantly different | cell count, difference between the three treatment groups ([1]; Sim-IL10): no effect | % Change of average Cell Counts, GIT 27 vs DMSO treated vehicle ([1]; Simultaneous Treatment (B), exposed to IL-1β): 50.87% | % Change of average Cell Counts, GIT 27 vs DMSO treated vehicle ([1]; Simultaneous Treatment (B), exposed to IL-10): −5.50% | edema [2]: significantly reduced
